The values below come from US20140344996A1, “METHODS AND MEANS TO PRODUCE ABIOTIC STRESS TOLERANT PLANTS” (VIB VZW, priority 2011, published 2014).

Assay type in all cases: in vivo, Arabidopsis thaliana
The test system of test [1] is Arabidopsis seedlings. Kind of test: Gene expression in the third leaf after transfer to Dex medium. Particulars: 5 μM Dexamethasone in ½ MS medium, transfer at 9DAS.
Method: At 9DAS, when the third leaf is fully proliferating, the mesh with seedlings was transferred to plates containing ½ MS medium with 5 μM Dexamethasone (Dex). For expression analysis and growth experiments, all seedlings were transferred to Dex, including the control lines, to account for the possible effects of Dex on growth or gene expression. […] Here, the non-treated plants will serve as a control for the Dex-induced plants of the same line. […] Leaf 3 was harvested from plants at 1, 2, 4 and 24 hours after transfer. Samples were obtained from three independent experiments and from multiple plates within the experiment. Whole seedlings were harvested rapidly in an excess of RNAlater solution (Ambion) and, after overnight storage at 4° C., dissected under a binocular microscope on a cooling plate with precision microscissors. Dissected leaves were transferred to a new tube, frozen in liquid nitrogen, and ground with a Retsch machine and 3-mm metal balls. RNA was extracted with TriZol (Invitrogen) and further purified with the RNEASY® Mini Kit (Qiagen). DNA digestion was done on-column with Rnase-free DNase I (Roche). […] Melting curves were analyzed to check primer specificity. […] Ct refers to the number of cycles at which SYBR Green fluorescence reaches an arbitrary value during the exponential phase of the cDNA amplification.
For test [2], the system named is Arabidopsis seedlings. Kind of test: Leaf growth of Arabidopsis seedlings in vitro after transfer to Dex medium. Conditions: 5 μM Dexamethasone in ½ MS medium, transfer at 9DAS.
Method: Seedlings were grown in vitro on half-strength Murashige and Skoog medium (Murashige and Skoog 1962) containing 1% sucrose and 6.5 g/L agar at 21° C. under a 16-hour day (110 μmol m^−2 s^−1) and 8-hour night regimen. The growth medium was overlaid with nylon mesh (Prosep, Zaventem, Belgium) of 20 μm pore size to facilitate transfer to induction medium. For expression analysis and growth experiments, 64 resp. 32 seeds were equally distributed on a 15-cm diameter petri dish. […] At 9DAS, when the third leaf is fully proliferating, the mesh with seedlings was transferred to plates containing ½ MS medium with 5 μM Dexamethasone (Dex). For expression analysis and growth experiments, all seedlings were transferred to Dex, including the control lines, to account for the possible effects of Dex on growth or gene expression. […] Here, the non-treated plants will serve as a control for the Dex-induced plants of the same line. […] Growth analysis was performed on the third true leaf harvested at different time points after transfer to Dex. After clearing with 70% ethanol, leaves were mounted in lactic acid on microscopic slides. […] Photographs of leaves and drawings were used to measure leaf area and cell size, respectively, using ImageJ v1.37o (NIH; on the World Wide Web at //rsb.info.nih.gov/ij/), and from these cell numbers were calculated by dividing leaf area with cell area.
In test [3] the test system is Arabidopsis wild-type plants. Kind of test: Growth of the third leaf under mild osmotic stress (mannitol). Particulars: wild-type line, transfer at 9DAS to medium with 25 mM Mannitol. The protocol: It was opted to study growing plants upon exposure to mild stress, not threatening plant survival but only reducing plant growth by an average of 50%. For loss-of-function analysis, the double erf5/erf6 T-DNA insertion mutant and a wild-type line were grown on control medium until 9DAS and then transferred to growth medium containing 25 mM of the osmoticum Mannitol. Subsequently, upon transfer, growth of the third leaf was measured.
Seedlings were grown in vitro on half-strength Murashige and Skoog medium (Murashige and Skoog 1962) containing 1% sucrose and 6.5 g/L agar at 21° C. under a 16-hour day (110 μmol m^−2 s^−1) and 8-hour night regimen. The growth medium was overlaid with nylon mesh (Prosep, Zaventem, Belgium) of 20 μm pore size to facilitate transfer to induction medium. For expression analysis and growth experiments, 64 resp. 32 seeds were equally distributed on a 15-cm diameter petri dish. […]
Growth analysis was performed on the third true leaf harvested at different time points after transfer to Dex. […] Photographs of leaves and drawings were used to measure leaf area and cell size, respectively, using ImageJ v1.37o (NIH; on the World Wide Web at //rsb.info.nih.gov/ij/), and from these cell numbers were calculated by dividing leaf area with cell area.

Turning to `C[C@@H]1C[C@H]2[C@@H]3CCC4=CC(=O)C=C[C@]4(C)[C@@]3(F)[C@@H](O)C[C@]2(C)[C@@]1(O)C(=O)CO` [Dex, Dexamethasone], in the test on Arabidopsis seedlings [1], the “effect on gene expression” value is recorded as “no effect”. Further, in the test with Arabidopsis seedlings [2], the effect on growth entry is given as “no effect”. With `OC[C@@H](O)[C@@H](O)[C@H](O)[C@H](O)CO` [Mannitol], the “growth of the third leaf” value in test [3] was “expected growth reduction”.
